Laboratory results from US11014908B2, “Chemical compounds” (Pfizer Inc., priority 2018, dated 2021).

Tests used:
[1] = molecular target: T1, purified sickle cell hemoglobin (HbS) (Homo sapiens, UniProt P68871+P69905, E7V); assay: Binding affinity to purified HbS by Surface Plasmon Resonance (SPR); conditions: crosslinked biotinylated HbS, 1:1 binding model
T1 construct: HbS was obtained from the blood of homozygous S/S patients; from tissue; host or cells: red blood cells of homozygous S/S patients
Procedure: Binding Affinity, Kd (uM)
The binding affinity for compounds to purified sickle cell hemoglobin (HbS) was determined using Surface Plasmon Resonance (SPR). Patient Sickle Cell blood was obtained from Boston Children's Hospital in accordance with Institutional Review Board protocols. HbS was obtained from the blood of homozygous S/S patients, and purified using the method described in: Antonini and Brunori, Hemoglobin and Myoglobin in their Reactions with Ligands. Amsterdam, London, North-Holland Publishing Company, 1971. Whole blood was separated into red blood cell and plasma components by centrifugation, after which the plasma was decanted and discarded. Packed red blood cells were washed with normal saline (0.9% NaCl) and then lysed by 2:1 dilution with cold deionized water. The hemolysate was centrifuged to remove cellular debris, and further purified with the addition of Drabkin's Buffer (2.8 M potassium phosphate), and centrifugation with Celite®. Organic phosphates (2,3-BPG) were removed via gel filtration with Sephadex® G-25. HbS and wild-type hemoglobin, hemoglobin A (HbA), were separated by […], using diethylaminoethyl (DEAE)-Sepharose® fast flow, and eluted using a pH gradient from pH 8.5-pH 7.5. Purity of the resulting HbS and HbA was determined by native gel electrophoresis and HbS fractions used further.
To stabilize the tetrameric structure of hemoglobin, HbS was crosslinked between the beta subunits (Lys82-Lys82) using bis(3,5-dibromosalicyl) fumarate, as described in: Shibayama N. et al, J Am Chem Soc 2014, 136, 13, 5097-5105 and Shibayama N. et al, Biochemistry 1991, 39, 33, 8158-8165). Crosslinked HbS was subsequently biotynylated and captured on a custom made Streptavidin sensor to achieve protein density of 4000 to 5000 resonance units (RUs) on the surface. Compound binding to HbS using SPR was tested on Sierra Sensors MASS-1 instrument. The running buffer contained 100 mM Potassium Phosphate, pH 7.5, 0.005% Tween-20, 1 mM ethylenediaminetetraacetic acid (EDTA), 0.1 mg/mL bovine serum albumin with 1% DMSO. Compound samples were injected at a flow rate of 30 μL/min for 2 minutes association and at least 5 minutes of dissociation time. A 2- or 3-fold dilution series containing at least 4 concentrations were tested for each compound. The dose range was selected based on the activity of the compounds in biochemical assays, when available. Multiple blank injections of running buffer were run before and after each compound series to allow blank subtraction for compound data in the analysis software. Positive controls were run in each experiment to monitor and maintain the activity of HbS on the surface. A DMSO curve was run at the beginning of each data set to apply an excluded volume correction to the data during analysis. The data were processed and analyzed using Sierra Sensors and Scrubber 2.0 software. The binding affinities (dissociation constant Kd) were calculated by fitting the sensorgrams to a 1:1 binding model.

HbS = molecular target: T2, HbS (Homo sapiens, UniProt P68871+P69905, E7V); assay: 'R'-'T' assay (conversion of oxy HbS to deoxy HbS under deoxygenating conditions); assay type: biochemical; conditions: 50% inhibition of HbS 'R'-'T' conversion; 3 uM HbS, <1% O2
T2 construct: HbS was obtained from the blood of homozygous S/S patients; from tissue; host or cells: red blood cells of homozygous S/S patients
Procedure: Conversion from oxy (R, relaxed state) to deoxy (T, tense state) HbS in the presence of compound was performed to determine the ability of compounds to stabilize the oxy (R) state under deoxygenating conditions. The assay run was similar to the ‘Oxygen dissociation assay’ described in Oksenberg et al, Br J Haematology, 2016, 175, 141-153.
Assay ready compound plates were prepared by first preparing a master serial dilution plate from a 30 mM initial compound stock in 100% DMSO. From this master serial dilution plate, 167 nL of the desired compound concentration was delivered to the assay ready plates using acoustical dispensing. Plates were frozen at −20° C. until needed. Purified HbS-O2 (i.e. oxy HbS) was diluted to 3 uM in 100 mM potassium phosphate buffer, pH=7.4. 50 uL of 3 uM stock solution was added to each well of the assay ready plate and mechanically mixed eight times. Following mixing the plates were covered and incubated at room temperature for one hour with moderate shaking. Following incubation, the plates were placed in a deoxygenated environment (<1% O2) for two hours, and the conversion to deoxy HbS monitored as a function of time. Oxygenated and deoxygenated forms of hemoglobin were detected using the absorbance of the Soret peaks at 415 and 430 nm respectively, and absorbance measurements (optical density, OD) were taken at 0, 90 and 120 minutes. Background absorbance for correction was collected at 700 nm.
Data were analyzed by first subtracting baseline absorbance at 700 nm from 415 nm and 430 nm data at each timepoint, and then taking the ratio of 415/430 nm data (Ratio=[(OD415−OD700)/(OD430−OD700)]. The effect at each timepoint was calculated using the ratios from the previous calculation at time 0 and each time point of interest (Effect^time x=Ratio^time x/Ratio^time 0). Percent effect was calculated by comparing the effects of compound versus HbS only with the effects observed by the positive control compound tucaresol (percent effect=[(effect^time x compound−effect^time x HbS)/(effect^time x tucaresol−effect^time x HbS)]×100). Data were reported as the percent effect for a single point. Calculations to determine the concentration of compound for 50% inhibition (IC50 (uM)) of the HbS ‘R’-‘T’ conversion were based on the percent effect at varying compound concentration.

Compound | Kd [1] | IC50 (HbS)
Cc1cc2nc(N)c(O[C@@H](C)c3cc(C(=O)O)ccc3-n3cccn3)cc2cn1 [Example 22, 3-{(1S)-1-[(2-amino-7-methyl-1,6-naphthyridin-3-yl)oxy]ethyl}-4-(1H-pyrazol-1-yl)benzoic Acid] | 0.172 µM | 5.4 µM
Cc1cc2nc(N)c(O[C@@H](C)c3nc4[nH]ncc4cc3-n3cccn3)cc2cn1 [Example 75, 7-methyl-3-{(1S)-1-[5-(1H-pyrazol-1-yl)-1H-pyrazolo[3,4-b]pyridin-6-yl]ethoxy}-1,6-naphthyridin-2-amine] | 0.036 µM | 3.76 µM
C[C@H](Oc1cc2cc(Br)ccc2nc1N)c1ncccc1-n1cccn1 [Example 28, 6-bromo-3-{(1S)-1-[3-(1H-pyrazol-1-yl)pyridin-2-yl]ethoxy}quinolin-2-amine] | 0.157 µM | 6.56 µM
C[C@H](Oc1cc2cc(C#N)ccc2nc1N)c1ncc(F)cc1-n1cccn1 [Example 26, 2-amino-3-{(1S)-1-[5-fluoro-3-(1H-pyrazol-1-yl)pyridin-2-yl]ethoxy}quinoline-6-carbonitrile] | 0.138 µM | 4.91 µM
C[C@H](Oc1cc2cc(F)cc(F)c2nc1N)c1cc2c(cnn2CCO)cc1-n1cccn1 [Example 72, 2-[6-{(1S)-1-[(2-amino-6,8-difluoroquinolin-3-yl)oxy]ethyl}-5-(1H-pyrazol-1-yl)-1H-indazol-1-yl]ethanol] | 0.011 µM | 3.03 µM
C[C@H](Oc1cc2cc(F)ccc2nc1N)c1cc2nn(CC(=O)O)cc2cc1-n1cccn1 [Example 71, [6-{(1S)-1-[(2-amino-6-fluoroquinolin-3-yl)oxy]ethyl}-5-(1H-pyrazol-1-yl)-2H-indazol-2-yl]acetic Acid] | 0.048 µM | 4.61 µM
C[C@H](Oc1cc2cc(F)ccc2nc1N)c1cc(CCC(=O)O)ccc1-n1cccn1 [Example 16, 3-[3-{(1S)-1-[(2-amino-6-fluoroquinolin-3-yl)oxy]ethyl}-4-(1H-pyrazol-1-yl)phenyl]propanoic Acid] | 0.188 µM | 3.6 µM
C[C@H](Oc1cc2cc([C@@H](C)O)ccc2nc1N)c1nc(O)ccc1-n1cccn1 [Example 51, 6-[(1S)-1-({2-amino-6-[(1R)-1-hydroxyethyl]quinolin-3-yl}oxy)ethyl]-5-(1H-pyrazol-1-yl)pyridin-2-ol] | 6.88 µM | 52.1 µM
COCCNC(=O)c1ccc(-n2cccn2)c([C@H](C)Oc2cc3cc(F)ccc3nc2N)c1 [Example 11, 3-{(1S)-1-[(2-amino-6-fluoroquinolin-3-yl)oxy]ethyl}-N-(2-methoxyethyl)-4-(1H-pyrazol-1-yl)benzamide] | 0.061 µM | 4.35 µM
C[C@H](Oc1cc2cc(F)c(Cl)cc2nc1N)c1cc(C(N)=O)c(F)cc1-n1cccn1 [Example 2, 5-{(1S)-1-[(2-amino-7-chloro-6-fluoroquinolin-3-yl)oxy]ethyl}-2-fluoro-4-(1H-pyrazol-1-yl)benzamide] | 0.021 µM | 6.82 µM

Next, values leading:

Kd [1] | IC50 (HbS) | Compound
0.164 µM | 5.27 µM | C[C@H](Oc1cc2cc(F)ccc2nc1N)c1nc(OCC(=O)O)ccc1-n1cccn1 [Example 40, {[6-{(1S)-1-[(2-amino-6-fluoroquinolin-3-yl)oxy]ethyl}-5-(1H-pyrazol-1-yl)pyridin-2-yl]oxy}acetic Acid]
0.384 µM | 6.32 µM | C[C@H](Oc1cc2ncccc2nc1N)c1nc(O)ccc1-n1cccn1 [Example 47, 6-{(1S)-1-[(2-amino-1,5-naphthyridin-3-yl)oxy]ethyl}-5-(1H-pyrazol-1-yl)pyridin-2-ol]
0.014 µM | 28.9 µM | C[C@H](Oc1cc2cc(C(N)=O)c(F)cc2nc1N)c1nc2[nH]ncc2cc1-n1cccn1 [Example 76, 2-amino-7-fluoro-3-{(1S)-1-[5-(1H-pyrazol-1-yl)-1H-pyrazolo[3,4-b]pyridin-6-yl]ethoxy}quinoline-6-carboxamide]
0.892 µM | 11.2 µM | Cc1ccc2nc(N)c(O[C@@H](C)c3nc(O)ccc3-n3cccn3)cc2n1 [Example 54, 6-{(1S)-1-[(2-amino-6-methyl-1,5-naphthyridin-3-yl)oxy]ethyl}-5-(1H-pyrazol-1-yl)pyridin-2-ol]
0.009 µM | 3.71 µM | C[C@H](Oc1cc2cc(F)ccc2nc1N)c1cc2c(cnn2CC(=O)O)cc1-n1cccn1 [Example 67, [6-{(1S)-1-[(2-amino-6-fluoroquinolin-3-yl)oxy]ethyl}-5-(1H-pyrazol-1-yl)-1H-indazol-1-yl]acetic Acid]
0.055 µM | 4.11 µM | C[C@H](Oc1cc2cc(F)c(Cl)cc2nc1N)c1cc2[nH]ncc2cc1-n1cccn1 [Example 60, 7-chloro-6-fluoro-3-{(1S)-1-[5-(1H-pyrazol-1-yl)-1H-indazol-6-yl]ethoxy}quinolin-2-amine]
0.184 µM | 4.84 µM | COc1ccc(-n2cccn2)c([C@H](C)Oc2cc3cc(F)ccc3nc2N)n1 [Example 57, 6-fluoro-3-{(1S)-1-[6-methoxy-3-(1H-pyrazol-1-yl)pyridin-2-yl]ethoxy}quinolin-2-amine]
0.464 µM | 6.22 µM | C[C@H](Oc1cc2cc(F)ccc2nc1N)c1nc(C(=O)O)c(F)cc1-n1cccn1 [Example 39, 6-{(1S)-1-[(2-amino-6-fluoroquinolin-3-yl)oxy]ethyl}-3-fluoro-5-(1H-pyrazol-1-yl)pyridine-2-carboxylic Acid]
0.015 µM | 4.66 µM | C[C@H](Oc1cc2cc(F)cc(F)c2nc1N)c1cc(C(=O)NS(C)(=O)=O)ccc1-n1cccn1 [Example 24, 3-{(1S)-1-[(2-amino-6,8-difluoroquinolin-3-yl)oxy]ethyl}-N-(methylsulfonyl)-4-(1H-pyrazol-1-yl)benzamide]
0.152 µM | 8.36 µM | C[C@H](Oc1cc2cc(F)ccc2nc1N)c1cc2[nH]cnc2cc1-n1cccn1 [Example 63, 6-fluoro-3-{(1S)-1-[5-(1H-pyrazol-1-yl)-1H-benzimidazol-6-yl]ethoxy}quinolin-2-amine]
0.063 µM | 4.4 µM | C[C@H](Oc1cc2cc(C(N)=O)ccc2nc1N)c1nc(O)ccc1-n1cccn1 [Example 44, 2-amino-3-{(1S)-1-[6-hydroxy-3-(1H-pyrazol-1-yl)pyridin-2-yl]ethoxy}quinoline-6-carboxamide]
1.51 µM | 6.25 µM | C[C@H](Oc1cc2cc(C(N)=O)ccc2nc1N)c1ncccc1-n1cccn1 [Example 30, 2-amino-3-{(1S)-1-[3-(1H-pyrazol-1-yl)pyridin-2-yl]ethoxy}quinoline-6-carboxamide]
